One may read the EC50 as the midpoint of the concentration-response curve. A high value points to a less potent agent.

The structures appear in SMILES notation.

One assay has as its target T1, Gal4-RORγ-LBD (Homo sapiens, UniProt P51449).
T1 construct: expressed in transfected cells; host or cells: HEK-293 cells (pcDNA3.1neo plasmid)
T1 sequence (P51449 269-508 limits assumed): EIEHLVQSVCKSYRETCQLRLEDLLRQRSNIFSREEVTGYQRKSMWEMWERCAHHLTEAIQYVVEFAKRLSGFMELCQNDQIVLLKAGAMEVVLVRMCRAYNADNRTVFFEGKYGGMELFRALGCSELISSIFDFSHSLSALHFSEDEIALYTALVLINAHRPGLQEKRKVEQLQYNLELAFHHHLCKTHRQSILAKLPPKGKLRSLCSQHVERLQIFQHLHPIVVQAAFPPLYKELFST
The experiment in a line: Gal4-RORγ Luciferase Reporter Assay in HEK-293T Cells. The note with it: HEK-293 cells. The class given is cell-based. In outline:
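Luminescence read-out (One-Glo, 10 min RT) after overnight compound exposure at 37 °C in HEK-293 cells carrying Gal4-RORγ-LBD plus a Gal4-luciferase reporter, in the presence of 2 μM ursolic acid. Max Response is the upper plateau from a 4-parameter logistic fit, normalized to untreated signal = 100.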

A further assay concerns the target T2, RORγ-LBD (Homo sapiens, UniProt P51449).
T2 construct: made in house; host or cells: SF9 cells (baculovirus)
T2 sequence (P51449 269-508 limits assumed): T1 sequence (P51449 269-508 limits assumed)
The assay can be described thus: RORγ-Ligand Binding Domain (LBD) TR-FRET Assay.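 On TR-FRET Assay Max Response: 665/615 nm ratio relative to signal without ursolic acid or compound set at 100.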 Format: biochemical. In outline: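 TR-FRET read-out using a biotin-tagged SRC1 coactivator LXXLL peptide (200 nM final), with the antagonist ursolic acid present at 2 μM final. Receptor is His-tagged LBD expressed in SF9 cells, ~3 nM final in pH 7.0 Tris/KCl/EDTA/DTT/BSA buffer; compounds in 1% DMSO final.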
Background: TR-FRET usually uses a lanthanide donor and a delayed reading to cut background.

Setting [1] is: luciferase reporter, with 2 μM ursolic acid.

As to `COc1cccc(-c2ccc3c(c2)N(S(=O)(=O)c2ccc(F)c(OC)c2)C[C@H](CCNC(=O)C(C)(C)O)O3)c1` [Compound 30N, (S)-N-(2-(4-((4-fluoro-3-methoxyphenyl)sulfonyl)-6-(3-methoxyphenyl)-3,4-dihydro-2H-benzo[b][1,4]oxazin-2-yl)ethyl)-2-hydroxy-2-methylpropanamide], at Gal4-RORγ-LBD (setting [1]), the EC50 is less than 500 nM and the “Gal4-RORγ Assay Max Response” value is listed as “* (The symbol “*” indicates a value in the range of 25 to 90)”. Besides, on RORγ-LBD, the EC50 was less than 500 nM and the “TR-FRET Assay Max Response” value is “*** (The symbol “***” indicates a value in the range of greater than 150 to 200)”.
Regarding `CC(C)(C[C@H]1CN(S(=O)(=O)c2cccc(C(F)(F)F)c2)c2cc(-c3cccc4c3OC(F)(F)O4)ccc2O1)C(=O)O` [Compound 32AC, (S)-3-(6-(2,2-difluorobenzo[d]-[1,3]dioxol-4-yl)-4-((3-(trifluoro-methyl)phenyl)sulfonyl)-3,4-dihydro-2H-benzo[b][1,4]oxazin-2-yl)-2,2-dimethylpropanoic acid], on Gal4-RORγ-LBD (2 μM ursolic acid), the EC50 is less than 500 nM and the “Gal4-RORγ Assay Max Response” value was “** (The symbol “**” indicates a value in the range of greater than 90 to 150)”. Also, on RORγ-LBD, the EC50 was less than 500 nM and the “TR-FRET Assay Max Response” value was “*** (The symbol “***” indicates a value in the range of greater than 150 to 200)”.
As to `C[C@](O)(CC[C@H]1CN(S(=O)(=O)c2cccc(C(F)(F)F)c2)c2cc(-c3cc(F)ccc3F)ccc2O1)C(=O)O` [Compound 39, (S)-4-((S)-6-(2,5-difluorophenyl)-4-((3-(trifluoromethyl)phenyl)sulfonyl)-3,4-dihydro-2H-benzo[b][1,4]oxazin-2-yl)-2-hydroxy-2-methylbutanoic acid], at Gal4-RORγ-LBD (setting [1]), the EC50 was less than 500 nM and the “Gal4-RORγ Assay Max Response” value is given as “** (The symbol “**” indicates a value in the range of greater than 90 to 150)”. Further, on RORγ-LBD, the EC50 was less than 500 nM and the “TR-FRET Assay Max Response” value is “**** (The symbol “****” indicates a value greater than 200)”.
Regarding `O=C(O)[C@H]1C[C@H](C[C@H]2CN(S(=O)(=O)c3cccc(C(F)(F)F)c3)c3cc(-c4cc(F)cc(OC(F)F)c4)ccc3O2)C1` [Compound 59, (1S,3r)-3-(((S)-6-(3-(difluoromethoxy)-5-fluorophenyl)-4-((3-(trifluoromethyl)phenyl)sulfonyl)-3,4-dihydro-2H-benzo[b][1,4]oxazin-2-yl)methyl)cyclobutane-1-carboxylic acid], on Gal4-RORγ-LBD (2 μM ursolic acid), the EC50 is less than 500 nM and the “Gal4-RORγ Assay Max Response” value is “** (The symbol “**” indicates a value in the range of greater than 90 to 150)”. At RORγ-LBD, the EC50 is less than 500 nM and the “TR-FRET Assay Max Response” value is “*** (The symbol “***” indicates a value in the range of greater than 150 to 200)”.
Regarding `O=C(O)CC[C@H]1CN(S(=O)(=O)c2cccc(OC(F)F)c2)c2cc(-c3cc(F)cc(F)c3Cl)ccc2O1` [Compound 6L, (S)-3-(6-(2-chloro-3,5-difluoro-phenyl)-4-((3-(difluoromethoxy)-phenyl)sulfonyl)-3,4-dihydro-2H-benzo[b][1,4]oxazin-2-yl)propanoic acid], on Gal4-RORγ-LBD (setting [1]), the EC50 is less than 500 nM and the “Gal4-RORγ Assay Max Response” value was “** (The symbol “**” indicates a value in the range of greater than 90 to 150)”. Besides, at RORγ-LBD, the EC50 was less than 500 nM and the “TR-FRET Assay Max Response” value is reported as “*** (The symbol “***” indicates a value in the range of greater than 150 to 200)”.
For the compound `O=C(O)CNC(=O)NCC[C@H]1CN(S(=O)(=O)c2cccc(C(F)(F)F)c2)c2cc(-c3cc(F)ccc3F)ccc2O1` [Compound 23X, (S)-((2-(6-(2,5-difluorophenyl)-4-((3-(trifluoromethyl)phenyl)-sulfonyl)-3,4-dihydro-2H-benzo[b][1,4]oxazin-2-yl)ethyl)carbamoyl)glycine], on Gal4-RORγ-LBD (setting [1]), the EC50 was in the range of 500 to 5000 nM and the “Gal4-RORγ Assay Max Response” value is recorded as “** (The symbol “**” indicates a value in the range of greater than 90 to 150)”. In addition, on RORγ-LBD, the EC50 was less than 500 nM and the “TR-FRET Assay Max Response” value is given as “**** (The symbol “****” indicates a value greater than 200)”.

Values taken from patent US10611740B2, “Aryl dihydro-2H-benzo[b][1,4]oxazine sulfonamide and related compounds for use as agonists of RORγ and the treatment of disease” (Lycera Corporation, priority 2015, dated 2020).
